Measurements taken from US11974969B2, “Artificially synthesized sphingosine derivative lipoid monomer and use of same for delivering nucleic acid” (INSTITUTE OF BASIC MEDICAL SCIENCES CHINESE ACADEMY OF …, priority 2018, dated 2024).

Tested on: HEK293T cells
Assay: Flow cytometry (CFlow): delivery of FAM-labeled single-stranded PGY-sRNA-6 into HEK293T cells by different concentrations of single sphingosine derivative (Example 1)
Format: cell-based, human
Conditions: for delivery of single-stranded PGY-sRNA-6 into 293T cells (fluorescence shift compared to free uptake group): different concentrations: 3.75, 12.5, 37.5 μg single lipid, 0.1 nmol FAM-labeled sRNA, final 100 nM, 9 hours, flow cytometry; for Lipid delivery group (different concentrations of lipids) 3.75 μg/mL: single sphingosine derivative 3.75 μg/mL; for Lipid delivery group (different concentrations of lipids) 3.75 μg/mL / Lipid delivery group (different concentrations of lipids) 12.5 μg/mL / Lipid delivery group (different concentrations of lipids) 37.5 μg/mL: FAM-labeled PGY-ssRNA-6 100 nM, 293T cells, fluorescence shift by flow cytometry; for Lipid delivery group (different concentrations of lipids) 12.5 μg/mL: single sphingosine derivative 12.5 μg/mL; for Lipid delivery group (different concentrations of lipids) 37.5 μg/mL: single sphingosine derivative 37.5 μg/mL
Procedure: 2.1 5 μl of small RNA (Ribobio, 20 μM, as shown in Table 2) and 95 μL of DEPC (Sigma) treated water were added into a 1.5 ml EP tube and mixed well. Then a certain amount of single lipid or lipid composition in chloroform solution (as shown in Table 1) was added and fully mixed by sucking and blowing;
2.2 The system was fully mixed and was heated in a water bath at 90° C. for 15 minutes;
2.3 The system was taken out and cooled down to room temperature.
4.3 The human embryonic kidney cell line HEK293T and human monocyte THP-1 cells used in the experiment were cultured to logarithmic growth phase, and then plated into 12-well plates with a cell density of 6×10^5/1 mL medium/well. The 12-well plate (1 mL medium/well) was incubated overnight (12 h) at 37° C., followed by subsequent experiments.
4.4 The experiment groups were as follows: • 1) Naïve group: untreated cells. This group served as a blank control group. • 2) Free uptake group: […] of 5′-FAM labeled small RNA solution (storage concentration is 20 μM) was directly added. This group served as a negative control group; • 3) Lipid nucleic acid mixture treatment group: The mixture of the lipid prepared in step 2 and the 5′-FAM-labeled small RNA was added into the cells and mixed well. The final concentration of small RNA is 100 nM.
4.5 After co-incubation with cells for 6 h/9 h, the cells were washed three times with PBS. The cells were re-suspended with PBS (self-prepared). The flow cytometer Accuri® C6 instrument (purchased from BD, US) was used to detect the fluorescence intensity of the cells in the sample wells. Implementation method: the software CFlow Plus used in the flow cytometer Accuri® C6 instrument detection was opened, the instrument was washed with cleaning solution for 3 minutes, and then washed with double-distilled water for 5 minutes. The injection of blank group samples was started while setting the number of cells unlimited. The injection of Naïve group samples was stopped when the number of cells detected was 10000 events. The live cell group in the fluorescence spectrum (abscissa: FSC-A, ordinate: SSC-A) was circled as gate P1. With the number of cells set as limited, the detection was stopped when the number of cells in gate P1 reached 10000 events. The fluorescence shift value was obtained in the fluorescence spectrum (abscissa: fluorescence channel FLA-1, ordinate: SSC-A).
1) Conditions of the boiling method: to 100 μL FAM-labeled single-stranded PGY-sRNA-6 solution was added corresponding amount of lipid solution, and heated at 90° C. for 15 min;
2) Experimental conditions: the final concentration of small RNA was 100 nM. 9 hours after being added to the cells, the amount of single-stranded PGY-sRNA-6 that entered into the cells was compared by detecting the fluorescence shift using flow cytometry technology. For the detailed protocols, see “Flow cytometry technology (CFlow) determined the uptake amount of nucleic acid that is delivered into cells by lipid”. All experiments were performed in triplicates.

| SMILES | delivery of single-stranded PGY-sRNA-6 into 293T cells (fluorescence shift compared to free uptake group) | Lipid delivery group (different concentrations of lipids) 3.75 μg/mL | Lipid delivery group (different concentrations of lipids) 12.5 μg/mL | Lipid delivery group (different concentrations of lipids) 37.5 μg/mL |
| --- | --- | --- | --- | --- |
| CCCCCCCCCCCCC/C=C/[C@@H](O)[C@H](CO)NC(=O)CCCCCCCCCCC [So-62, N-[(1S,2R,3E)-2-hydroxy-1-(hydroxymethyl)-3-heptadecen-1-yl]-dodecanamide] | deliver | 6.60% | 6.50% | 7.10% |
| CCCCCCCCCCCCCC[C@@H](O)[C@@H](O)[C@@H](N)CO [So-63, 2S-amino-1,3S,4R-octadecanetriol] | deliver | 5.60% | 7.70% | 6.50% |
| CCCCCCCCCCCCC/C=C/[C@@H](O)[C@H](CO)NC(=O)CCCCCCCCCCCCCC [So-64, N-[(1S,2R,3E)-2-hydroxy-1-(hydroxymethyl)-3-heptadecen-1-yl]-pentadecanamide] | deliver | 7.40% | 6.20% | 8.70% |
| CCCCCCCCCCCCC/C=C/[C@@H](O)[C@H](CO)NC(=O)CCCCCCCCCCCCCCCCCC [So-65, N-[(1S,2R,3E)-2-hydroxy-1-(hydroxymethyl)-3-heptadecen-1-yl]-nonadecanamide] | deliver | 7.60% | 7.50% | 6.80% |
| CCCCCCCCCCCCC/C=C/[C@@H](O)[C@@H](N)CO[C@@H]1OC(CO)[C@@H](O)C(O)C1O (stereo partly drawn) [So-66, D-glucosyl-β1-1′-D-erythro-sphingosine] | deliver | 7.10% | 18.10% | 29.50% |
| CCCCCCCCCCCCCC[C@@H](O)[C@@H](O)[C@H](CO)NC(=O)CCCCC [So-67, N-[(1S,2S,3R)-2,3-dihydroxy-1-(hydroxymethyl)heptadecyl]-hexanamide] | deliver | 6.30% | 5.30% | 2.80% |
| CCCCCCCCCCCCCCCC(=O)N[C@@H](CO)[C@H](O)[C@H](O)CCCCCCCCCCCCCC [So-68, N-[(1S,2S,3R)-2,3-dihydroxy-1-(hydroxymethyl)heptadecyl]-hexadecanamide] | deliver | 4.80% | 3.80% | 3.90% |
| CCCCCCCCCCCCCCCCCC(=O)N[C@@H](CO)[C@H](O)[C@H](O)CCCCCCCCCCCCCC [So-69, N-[(1S,2S,3R)-2,3-dihydroxy-1-(hydroxymethyl)heptadecyl]-octadecanamide] | deliver | 4.60% | 3.80% | 3.30% |
| CCCCCCCCCCCCC/C=C/[C@H](O)[C@H](N)CO [So-70, (2R,3S,4E)-2-amino-4-octadecene-1,3-diol] | deliver | 4.70% | 10.10% | 11.40% |
| CCCCCCCCCC(=O)C(N)CO.Cl (stereo not shown) [So-72, 2-amino-1-hydroxy-3-dodecanone, monohydrochloride] | deliver | 2.40% | 3.40% | 14.10% |
| CCCCCCCCCC/C=C/[C@@H](O)[C@@H](N)CO [So-73, 2S-amino-4E-pentadecene-1,3R-diol] | deliver | 3.20% | 4.60% | 9.50% |
| [2H]C([2H])([2H])C([2H])([2H])C([2H])([2H])C([2H])([2H])CCCCCCCCC/C=C/[C@@H](O)[C@@H](N)CO [So-74, (2S,3R,E)-aminooctadec-4-ene-15,15,16,16,17,17,18,18,18-d9-1,3-diol] | deliver | 4.00% | 3.10% | 6.60% |
| CC(C)CCCCCCCCCCC[C@@H](O)[C@@H](N)CO [So-75, 1,3-Hexadecanediol, 2-amino-15-methyl-, D-erythro-] | deliver | 3.00% | 4.20% | 11.40% |
